These results are taken from patent publication US20210369724A1, “COMBINATION OF ATR KINASE INHIBITORS WITH 2,3-DIHYDROIMIDAZO[1,2-C]QUINAZOLINE COMPOUNDS” (Bayer Aktiengesellschaft, priority 2018, published 2021).

Where two headings read alike, the source gives them in different places. Marks after values point to notes of the source that are not given here.

One data set has as its system LNCaP. Put plainly: Proliferation assay of prostate cancer cell lines with R1881 (Cell Titre-Glo, 144 h). In kind it is cell-based, human. The settings on record: 0.3 nM R1881, 144 hour exposure, single compound.
The test system of another data set is HCT 116. Nature of the data set: Proliferation assay, mono and fixed-ratio combinations (Cell Titre-Glo, 96 h). As to conditions: HCT 116, single compound, 96 hour exposure. In kind it is cell-based, human.
The subject of data set [1] is SUM-149 breast cancer xenograft. Nature of the data set: Human SUM-149 breast cancer xenograft model. In kind it is in vivo, female NMRI nude mice. (Xenograft models place foreign cells or tissue in a host animal.)
Protocol: (§3) The oral application volume was 10 ml/kg and the intravenous application volume 5 ml/kg. The time interval between two applications per day was 6-7 h. […] The tumor size and the body weight were determined three times weekly. Changes in the body weight compared to the initial body weight at the start of treatment were a measure of treatment-related toxicity (>10%=critical, stoppage in treatment until recovery, >20%=toxic, termination). The tumor area was detected by means of an electronic caliper gauge [length (mm)×width (mm)]. In vivo anti-tumor efficacy is presented as T/C ratio (Treatment/Control) calculated with tumor areas at day of termination of control group by the formula [(tumor area of treatment group at day x)−(tumor area of treatment group at day before first treatment)]/[(tumor area control group at day x)−(tumor area of control group at day before first treatment)]. […] A one-way analysis of variance was performed and differences to the control were compared by a pair-wise comparison procedure (Dunn's method).
The subject of the next data set is SNU-449. Put plainly: Proliferation assay, mono and fixed-ratio combinations (Cell Titre-Glo, 96 h). In kind it is cell-based, human. The settings on record: SNU-449, single compound, 96 hour exposure.
Data set [2] concerns small cell lung cancer cell line NCI-H1048. Nature of the data set: Full matrix combination, 72-hour proliferation assay (CellTiter-Glo). The data set is classed as cell-based. How it is done: (§1) Percentage of control (DMSO) in tumor cell growth assay in vitro is used for the assessment of combination effects.
(§2) The efficacy parameters were the effects in a 72-hour assay. Tumor cells were cultured in 37° C. incubator in their respective growth medium and serum according to the protocol from providers. […] Cell viability was assessed after 72 hour exposure with the Cell Titre-Glo Luminescent Cell Viability Assay (Promega).
(ATP-based viability assays read luminescence as a measure of living cells.)

The subject of data set [3] is pancreatic cancer cell line Capan-1. The description is as above. In kind it is cell-based. As to conditions: Capan-1, single agent. The protocol:
as §1, §2

Data set [4] deals with ovarian cancer cell lines SK-OV-3. Described as above. The data set is classed as cell-based. As to conditions: SK-OV-3, single agent Compound A. How it is done:
as §1, §2

Data set [5] deals with 22Rv1 prostate cancer xenograft. Nature of the data set: Human 22Rv1 prostate cancer xenograft model. The data set is classed as in vivo, male Fox Chase SCID mice.
Protocol: as §3
A further data set has as its system SUM-149. Put plainly: Proliferation assay, mono and fixed-ratio combinations (Cell Titre-Glo, 96 h). As to conditions: SUM-149, single compound, 96 hour exposure. The data set is classed as cell-based, human.
The next data set has as its system VCaP. Nature of the data set: Proliferation assay of prostate cancer cell lines with R1881 (Cell Titre-Glo, 144 h). The settings on record: 0.1 nM R1881, 144 hour exposure, single compound. The data set is classed as cell-based, human.
The test system of the next data set is OVCAR-3. Put plainly: 72-hour growth assay of ovary cancer cell lines (Cell Titre-Glo). The data set is classed as cell-based, human. As to conditions: OVCAR-3, single compound, 72 hour exposure.
Another data set has as its system PLC/PRF/5. Nature of the data set: Proliferation assay, mono and fixed-ratio combinations (Cell Titre-Glo, 96 h). The data set is classed as cell-based, human. As to conditions: PLC/PRF/5, single compound, 96 hour exposure.
The test system of a further data set is C4-2B. Nature of the data set: Proliferation assay of prostate cancer cell lines with R1881 (Cell Titre-Glo, 144 h). The data set is classed as cell-based, human. As to conditions: 0.3 nM R1881, 144 hour exposure, single compound.
A further data set has as its system IGR-OV1. Nature of the data set: Proliferation assay, mono and fixed-ratio combinations (Cell Titre-Glo, 96 h). The settings on record: IGR-OV1, single compound, 96 hour exposure. The data set is classed as cell-based, human.
The next data set relates to A2780. Nature of the data set: 72-hour growth assay of ovary cancer cell lines (Cell Titre-Glo). The data set is classed as cell-based, human. The settings on record: A2780, single compound, 72 hour exposure.
The test system of a further data set is SK-OV-3. Put plainly: Proliferation assay, mono and fixed-ratio combinations (Cell Titre-Glo, 96 h). In kind it is cell-based, human. The settings on record: SK-OV-3, single compound, 96 hour exposure.
In data set [6] the test system is IGR-OV1 endometrial cancer xenograft. Put plainly: Human IGR-OV1 endometrial cancer xenograft model. The data set is classed as in vivo, female NMRI nude mice. As to conditions: IGR-OV1; 10 mg/kg, i.v., once daily, 2 days on/5 days off, days 1, 2 each week.
Protocol: as §3
In the next data set the test system is IGR-OV1 cancer xenograft. Put plainly: Human IGR-OV1 endometrial cancer xenograft model. The data set is classed as in vivo, female NMRI nude mice. As to conditions: IGR-OV1, day 55 after tumor inoculation.
In the next data set the test system is NCI-H460. Nature of the data set: Proliferation assay of cell lines treated with Compound A, Compound B and fixed-ratio combinations (Cell Titre-Glo, 96 h). The data set is classed as cell-based, human. As to conditions: NCI-H460, single compound, 96 hour exposure.
A further data set relates to MDA-MB-468. Put plainly: Proliferation assay, mono and fixed-ratio combinations (Cell Titre-Glo, 96 h). As to conditions: MDA-MB-468, single compound, 96 hour exposure. The data set is classed as cell-based, human.
For another data set, the system named is 22Rv1. Nature of the data set: Proliferation assay of prostate cancer cell lines with R1881 (Cell Titre-Glo, 144 h). The settings on record: 22Rv1, 0.1 nM R1881, 144 hour exposure, single compound. In kind it is cell-based, human.
The next data set has as its system PC-3. Nature of the data set: Proliferation assay of prostate cancer cell lines with R1881 (Cell Titre-Glo, 96 h). The data set is classed as cell-based, human. As to conditions: PC-3, 0.1 nM R1881, 96 hour exposure, single compound.
The subject of another data set is Huh-7. Put plainly: Proliferation assay, mono and fixed-ratio combinations (Cell Titre-Glo, 96 h). The settings on record: Huh-7, single compound, 96 hour exposure. The data set is classed as cell-based, human.
In data set [7] the test system is Ri-1 B cell lymphoma xenograft. Nature of the data set: Human Ri-1 B cell lymphoma xenograft model. The data set is classed as in vivo, female NOD/SCID mice.
Protocol: as §3
[8] abbreviates: SUM-149, 10 mg/kg, i.v., once daily, 2 days on/5 days off, days 1, 2 each week.
Setting [9] is: Ri-1, 10 mg/kg, i.v., once daily, 2 days on/5 days off, days 1, 2 each week.

Protocol for A2780: (§4) The effects of combinations of the present invention were evaluated using combination index isobologram analysis for in vitro assessment. The efficacy parameters were the effects in a 72-hour growth assay. Tumor cells were propagated in a humidified 37° C. incubator in their respective growth medium (RPMI) supplemented with 10% fetal calf serum. […] Cell viability was assessed after 72 hour exposure with the Cell Titre-Glo Luminescent Cell Viability Assay (Promega). […] IC50 isobolograms were plotted with the actual concentrations of the two compounds on the x- and y-axis, and the combination index (CI) was calculated according to the median-effect model of Chou-Talalay [Chou T. C.
Protocol for C4-2B: (§5) Tumor cells were propagated in a humidified 37° C. incubator in their respective growth medium supplemented with 10% fetal calf serum. […] Cell viability was assessed after 144 hour exposure, except for PC-3 cells where measurement took place after 96 hour exposure, with the Cell Titre-Glo Luminescent Cell Viability Assay (Promega).
Protocol for HCT 116: (§6) Tumor cells were propagated in a humidified 37° C. incubator in their respective growth medium supplemented 10% fetal calf serum. […] Cell viability was assessed after 96 hour exposure with the Cell Titre-Glo Luminescent Cell Viability Assay (Promega). […] IC50 isobolograms were plotted with the actual concentrations of the two compounds on the x- and y-axis, and the combination index (CI) was calculated according to the median-effect model of Chou-Talalay [Chou T. C.
Protocol for Huh-7: as §6
Protocol for IGR-OV1 cancer xenograft: as §3
Protocol for LNCaP: as §5
Protocol for MDA-MB-468: (§7) Tumor cells were propagated in a humidified 37° C. incubator in their respective growth medium supplemented 10% fetal calf serum. […] Cell viability was assessed after 96 hour exposure with the Cell Titre-Glo Luminescent Cell Viability Assay (Promega).
Protocol for NCI-H460: as §6
Protocol for OVCAR-3: as §4
Protocol for PC-3: as §5
Protocol for PLC/PRF/5: as §7
Protocol for SNU-449: as §7
Protocol for VCaP: as §5

For `COc1c(OCCCN2CCOCC2)ccc2c1N=C(NC(=O)c1cnc(N)nc1)N1CCN=C21.Cl.Cl` [Compound A, 2-amino-N-[7-methoxy-8-(3-morpholin-4-ylpropoxy)-2,3-dihydroimid-azo[1,2-c]quinazolin-5-yl]pyrimidine-5-carboxamide dihydrochloride], the IC50 in the data set with LNCaP amounted to 8 nM; in the data set on HCT 116, 95 nM; in the data set on SNU-449, 100 nM; in the data set with SUM-149, 10 nM; in the data set on VCaP, 13 nM; in the data set with OVCAR-3 it was 120 nM. Moreover, the IC50 with PLC/PRF/5 worked out at 180 nM; in the data set with C4-2B, 92 nM; with IGR-OV1, 19 nM; with A2780, 37.4 nM; with SK-OV-3 it was 82 nM; with NCI-H460, 63 nM. In addition, the IC50 with MDA-MB-468 is 280 nM; with 22Rv1 it was 50 nM; in the data set on PC-3, 100 nM; in the data set on Huh-7, 21 nM. Moreover, the “Anti-tumor efficacy of monotherapy compared to control” value is “weak to moderate and statistically significant improved anti-tumor efficacy” in [1] (SUM-149, day 49 after tumor inoculation); “weak to moderate and statistically significant improved anti-tumor efficacy” in [5] (22Rv1, at the day of control group termination); “good to moderate and statistically significant improved anti-tumor efficacy” in the data set on IGR-OV1 cancer xenograft; “good and statistically significant improved anti-tumor efficacy” in data set [7] (Ri-1, day 38 after tumor inoculation). In addition, the “Max. weight loss (%)” value in data set [1] (setting [8]) is −10%; in [5] (22Rv1, 14 mg/kg, i.v., once daily, 2 days on/5 days off, days 1, 2 each week), −8%; in data set [6], −6%; in [7] (setting [9]), −11%. For the same compound, the T/C in [1] (setting [8]) is listed as 0.58*; in [5] (22Rv1, 14 mg/kg, i.v., once daily, 2 days on/5 days off, days 1, 2 each week, tumor area at termination of control group), 0.51*; in [6], 0.32*; in data set [7] (setting [9]), 0.09*. The Concentration at which treatment led to tumor killing in [2] (NCI-H1048, single agent Compound A, 72-hour proliferation assay) is 0.025 µM. Besides, the “Concentration at which single agent led to moderate anti-proliferation effects” value in data set [3] was found to be 0.025 µM. In data set [4], the Concentration at which single agent showed anti-proliferative effects was 0.025 µM.
Consider `C[C@@H]1COCCN1c1cc(-c2ccnn2C)c2ccnc(-c3ccn[nH]3)c2n1` [Compound B, 2-[(3R)-3-methylmorpholin-4-yl]-4-(1-methyl-1H-pyrazol-5-yl)-8-(1H-pyrazol-5-yl)-1,7-naphthyridine], for which, in data set [2], the “Concentration at which treatment led to tumor killing” value is 0.253 µM.

For orientation: IC50 means the concentration needed to halve the response being measured.
